From patent US7989667B2, “Processes for the crystallization of 2,2,4,4-tetramethylcyclobutanediol” (Eastman Chemical Company, priority 2008, dated 2011)

Columns and labels:
[1] = Solubility of cis- and trans-2,2,4,4-tetramethylcyclobutanediol in isobutyl isobutyrate (GC of saturated liquid phase); assay type: physicochemical
Procedure: All of the solubility data and concentrations of cis and trans TMCD were measured by gas chromotography (GC) using an Agilent 6890GC instrument. The instrument was equipped with a split-splitless injector and flame ionization detection. The column is a DB®-Wax, 30 meter×0.25 mm ID, 0.50 μm film thickness column. The cis/trans ratio of the compositions was calculated from the respective concentrations.
The charge concentration of the isomers is expressed as weight % relative to the saturated concentration of each isomer at a temperature of 62.6° C.
The charge concentration of the isomers is expressed as weight % relative to the saturated concentration of each isomer at a temperature of 62.6° C. The vessel was equipped with a 4-blade flat blade pitched impeller for solids suspension, and the jacket was used to control the temperature of the vessel contents. The vessel was equipped with charging and sampling ports on top and a valve at the base to drain the vessel contents.
The slurry was allowed to stand for one hour sufficient for the solids to saturate the solvent at 6.4° C. At that time, a sample of the solution was drawn from the cell using a fritted pipette so as to remove only the liquid phase. The sample was analyzed for cis and trans isomer content. These values represented the saturated concentration of each isomer at the sampling temperature.
The cell contents were heated to 10.2° C. and the contents were held for a further hour to allow the slurry to equilibrate. A sample was then taken of the solution and analyzed. Following this procedure, data was gathered to 62.6° C.

[2] = Meta-stable zone width in isobutyl isobutyrate (colorimeter transmission on cooling from 90 to 10 °C); assay type: physicochemical; settings: for Limit of MZW / MZW (meta-stable zone width): isobutyl isobutyrate; for difference in onset of nucleation between repeated cool-downs: Experiments 3 and 4 of Table 2, same cooling rate 5 °C/hr; for Limit of Meta-Stable Zone Width: Table 1A, in isobutyl isobutyrate, data points shown in FIG. 7
Excerpt: The meta-stable zone width was estimated by charging 800 grams of a solution containing 100 relative weight % cis-2,2,4,4-tetramethylcyclobutanediol and 69 relative weight % trans-2,2,4,4-tetramethylcyclobutanediol in isobutyl isobutyrate solvent to a 1.2 L jacketed glass vessel. The vessel was equipped with a 4-blade flat blade pitched impeller for solids suspension, and the jacket was used to control the temperature of the vessel contents. The vessel was equipped with charging and sampling ports on top and a valve at the base to drain the vessel. The vessel contents were heated to 90° C., at which temperature both isomers were completely in solution.
All measurements to estimate the meta-stable zone width were made using a Beckmann Instruments PC 800 Colorimeter device. The device operated by transmitting a white light source into the solution which was reflected from a mirror at a distance of several millimeters from the source back to a detector in the probe. When no particles were present in suspension, most of the light was reflected back to the detector. If the solution was relatively transparent, some of the light was adsorbed by the solution and some was diffracted, but the majority was reflected. If crystals were present, a substantial quantity of the white light was adsorbed by the crystal mass and diffracted and less of the light was reflected back to the detector. In order to calibrate the instrument, a reference intensity was measured when no crystals were in suspension, and this was referred to as the 100% transmittance level.
The colorimeter was placed in the vessel such that the probe tip was submerged in the solution. The crystal free solution was cooled from 90° C. to 10° C. at a pre-determined cooling rate indicated in Table 2 and the magnitude of the transmission signal of the white light source monitored. When crystals appeared in solution, the white light source was blocked and the transmission/reflection decreased rapidly. Two distinct step changes in the transmission signal were observed indicating the nucleation of cis- and trans-2,2,4,4-tetramethylcyclobutanediol in suspension. FIG. 8 is a graph showing the solubility of cis-and trans-2,2,4,4-tetramethylcyclobutanediol in isobutyl isobutyrate and operating points for continuous crystallization.

[3] = Table 1A, in isobutyl isobutyrate, extrapolated from the data of FIG. 7
[4] = Table 2, solution in isobutyl isobutyrate used for MZW experiments 1-4
[5] = in isobutyl isobutyrate, 6.4 °C, wt % relative to saturated concentration of each isomer at 62.6 °C
[6] = in isobutyl isobutyrate, 10.2 °C, relative to saturated concentration at 62.6 °C
[7] = in isobutyl isobutyrate, 19 °C, relative to saturated concentration at 62.6 °C
[8] = in isobutyl isobutyrate, 26.2 °C, relative to saturated concentration at 62.6 °C
[9] = in isobutyl isobutyrate, 34.7 °C, relative to saturated concentration at 62.6 °C
[10] = in isobutyl isobutyrate, 39.6 °C, relative to saturated concentration at 62.6 °C
[11] = in isobutyl isobutyrate, 44.5 °C, relative to saturated concentration at 62.6 °C
[12] = in isobutyl isobutyrate, 51.6 °C, relative to saturated concentration at 62.6 °C
[13] = in isobutyl isobutyrate, 58.8 °C, relative to saturated concentration at 62.6 °C
[14] = in isobutyl isobutyrate, 62.6 °C (reference temperature)
[15] = Experiment 1, cooling rate 15 °C/hr
[16] = Experiment 2, cooling rate 10 °C/hr
[17] = Experiment 3, cooling rate 5 °C/hr
[18] = Experiment 4, cooling rate 5 °C/hr

Row | SMILES | Saturated Temperature [1, 3] [°C] | Saturated Temperature [1, 4] [°C] | Solubility [1, 5] [Relative wt %] | Solubility [1, 6] [Relative wt %] | Solubility [1, 7] [Relative wt %] | Solubility [1, 8] [Relative wt %] | Solubility [1, 9] [Relative wt %] | Solubility [1, 10] [Relative wt %] | Solubility [1, 11] [Relative wt %] | Solubility [1, 12] [Relative wt %] | Solubility [1, 13] [Relative wt %] | Solubility [1, 14] [Relative wt %] | Limit of MZW [2, 15] [°C] | MZW (meta-stable zone width) [2, 15] [°C] | Limit of MZW [2, 16] [°C] | MZW (meta-stable zone width) [2, 16] [°C] | Limit of MZW [2, 17] [°C] | MZW (meta-stable zone width) [2, 17] [°C] | Limit of MZW [2, 18] [°C] | MZW (meta-stable zone width) [2, 18] [°C] | other results
1 | CC1(C)[C@H](O)C(C)(C)[C@@H]1O [Cis-2,2,4,4-tetramethylcyclobutanediol, cis-2,2,4,4-tetramethylcyclobutanediol] | 68 | 68 | 0 | 3 | 10 | 17 | 29 | 37 | 47 | 64 | 86 | 100 | 50.94 | 17.06 | 51.77 | 16.23 | 60.38 | 7.62 | 58.24 | 9.76 | difference in onset of nucleation between repeated cool-downs [2]: approximately 2 °C; Limit of Meta-Stable Zone Width [2]: 58.24 °C
2 | CC1(C)[C@H](O)C(C)(C)[C@H]1O [Trans-2,2,4,4-tetramethylcyclobutanediol, trans-2,2,4,4-tetramethylcyclobutanediol] | 57 | 57 | 1 | 3 | 10 | 19 | 32 | 41 | 52 | 69 | 89 | 100 | 48.67 | 8.33 | 49.29 | 7.71 | 50.34 | 6.66 | 50.36 | 6.64 | difference in onset of nucleation between repeated cool-downs [2]: 0.02 °C; Limit of Meta-Stable Zone Width [2]: 50.36 °C
